Consider three molecules from patent publication US8603818B1, “TGF-beta receptor inhibitors to enhance direct reprogramming” (The General Hospital Corporation, priority 2008, dated 2013).

The test system of one experiment is secondary MEF lines. To be noted: inhibitor 2 μM, colonies day 16.
In experiment [1] the test system is MEFs infected with OSK or OSMK. The conditions noted are these: inhibitor 1 μM. The text has this:
7A. […] Cells were counted at each timepoint noted, and values represent the fractional change in cell number: (fraction of starting cell number at timepoint b−fraction of starting cell number at timepoint a)/time between b and a.
In support of this, it has been shown that activation of TGF-β signaling can promote an epithelial-to-mesenchymal transition (Valcourt, U., et al., (2005) Mol Biol Cell 16, 1987-2002); fibroblast reprogramming involves a mesenchymal-to-epithelial conversion, which may be enhanced by inhibition of the TGF-β signaling pathway.

A further experiment deals with secondary STEMCCA MEFs. In words: Dose-response of iPSC induction in secondary STEMCCA MEFs. It counts as cell-based, mice. The text has this:
3B. Dose-response curve for the Alk5 inhibitor in secondary STEMCCA MEFs.
Secondary STEMCCA MEFs were used to establish another dose-response curve for the Alk5 inhibitor.

The test system of a further experiment is primary MEFs. In words: Replacement of reprogramming factors in primary MEFs infected with factor combinations (OSK, OMK, OK).
For experiment [2], the system named is Secondary cells carrying the polycistronic STEMCCA construct. To be noted: dox 2 days; inhibitor 1 μM. As for the experimental part: 7B. Annexin V and propidium iodide (PI) staining to quantify apoptosis during iPSC induction. […] Annexin V-positive and PI-negative cells represent the fraction of living cells in the process of apoptosis.
Annexin V and propidium iodide staining was done using the Annexin V-FITC kit (BD Pharmingen, 556547) according to manufacturer directions. Cells were analyzed by flow cytometry on a FACSCalibur (BD).

Experiment [3] relates to Sox2, cMyc, Nanog expression in infected MEFs. As for the experimental part: MEFs were infected with various factor combinations, then treated with dox for three days in the presence or absence of […] Alk5 inhibitor (1 μM). qPCR analysis was done using primers that specifically detect endogenous Sox2 or cMyc, as well as total Nanog. Experiments were done with both biological and technical triplicates, and a Student's T-test (paired, two-tailed) was used to assess statistical significance.
RNA was extracted by using a Qiagen RNeasy kit (74104), then converted to cDNA with the Superscript III First-Strand synthesis system (Invitrogen) using oligo-dT primers. qRT-PCRs were carried out using Brilliant II SYBR Green mix (Stratagene) and run on a Stratagene MXPro400. Reactions were carried out in duplicate with -RT controls, and data were analyzed using the delta-delta Ct method.

Experiment [4] deals with embryonic stem cells+MEFs. As to the kind of experiment: Reprogramming by cell fusion. The conditions noted are these: data not shown.
The next experiment has as its system Sox2-GFP fibroblasts. The text has this:
1A. Effect of Alk5 inhibitor treatment on the number of Sox2-GFP+iPS colonies
Fibroblasts cultures were established from mice expressing green-fluorescent protein (GFP) from the genomic locus of the pluripotency gene Sox2. Sox2-GFP fibroblasts were then infected with viruses expressing the reprogramming factors c-Myc, Klf4, Oct4 and Sox2 in the presence and absence of a chemical inhibitor highly specific for the TGF-beta receptor Alk5 (ALK5 inhibitor H). GFP+colonies with embryonic stem (ES) cell morphology were scored 20 days after infection.

A further experiment concerns human fibroblast. The conditions noted are these: data not shown.
Experiment [5] concerns four-factor infected MEFs. In words: iPSC induction in four-factor infected MEFs (dox-inducible lentiviruses). The conditions noted are these: for efficiency of iPSC formation / iPSC colonies per well: 1 ng/mL ligand during dox induction, dox 12d, counts day 16. It counts as cell-based, mice. As to the method: 2A. Alkaline phosphatase stain for primary iPSC colonies, treated with or without the Alk5 inhibitor (1 μM) during dox induction. MEFs were infected with four factors and colonies were stained on day 12 (8d+dox/4d−dox).
2B. Kinetics of reprogramming in MEFs infected with four factors.
2D. Dose-response curve for the Alk5 inhibitor in MEFs induced with four factors.
2E Effect of TGF-β ligands in reprogramming, using four-factor infected MEFs (dox for 12d; counts on day 16 based on Oct4 immunostaining). TGF-β concentrations: low, 1 ng/mL; medium, 2.5 ng/mL; high, 5 ng/mL.
2F. Timing of Alk5 inhibitor action. The Alk5 inhibitor (1 μM) was applied in 4-day time intervals. Control=no inhibitor, Full-time=inhibitor added days 1-16.
2G. […] Inhibitor (1 μM) was applied for either 3 days before (−3 to 0d) or during the first 3 days of dox induction (0 to +3d), or both (−3d to +3d). Control=no inhibitor.
To induce reprogramming, MEFs were infected with a reverse tetracycline transactivator (rtTA) transgene with doxycycline-inducible lentiviruses encoding the four reprogramming factors as previously described (Stadtfeld, M., et al., (2008) Cell Stem Cell 2, 230-240).
It was next sought to establish a dose-response curve for the Alk5 inhibitor. Using four-factor infected MEFs, concentrations of the Alk5 inhibitor were tested over a 1000-fold range, from 4 nM to 4 μM. […] To verify that manipulation of TGF-β signaling affects reprogramming, it was investigated whether pathway activation would inhibit iPSC formation. Using four-factor infected MEFs, increasing concentrations of TGF-β1 or TGF-β2 were applied during the time of dox induction.
To gain further insight into the mode of action of the Alk5 inhibitor, the temporal window during which the inhibitor elicited its strongest effect was examined. In four-factor infected MEFs, the inhibitor was applied in 4-day intervals from days 0-16 of reprogramming. […] To test this, the inhibitor was applied in 3-day time intervals: before dox administration (days −3 to 0) to test for a priming effect, during the first 3 days of reprogramming (days 0 to +3) as a control for the efficiency increase, during both intervals (days−3 to +3) to test for a synergistic effect, and a no-inhibitor control as a baseline measure (FIG. 1G).

Where [6] appears, read: 2.5 ng/mL ligand during dox induction.
[7] abbreviates: 5 ng/mL ligand during dox induction.

Read-outs that look alike come from different tables or passages of the source.

Procedure for primary MEFs: Replacement of the role of cMyc with the Alk5 inhibitor (1 μM). MEFs were infected with either three (OSK) or four (OSMK) factors. Dox was withdrawn on day 8 and colonies were quantified on day 12 based on morphology and dox independence.
Replacement of the role of Sox2 with the Alk5 inhibitor (1 μM). MEFs were infected with three (OMK) or two (OK) factors and induced with dox for 16 days, then split on day 18 into media without dox. Image depicts alkaline phosphatase stain of passage 1 cultures.
Experiments were designed to investigate whether the Alk5 inhibitor could function to replace exogenous expression of any of the reprogramming factors. To this end, primary MEFs were infected with different combinations of the four factors in the presence or absence of inhibitor (FIG. 4) and then scored for iPSC formation.
For all of the other replacement conditions, dox was withdrawn on day 16, which would provide sufficient time for reprogramming. […] Nonetheless, colonies were picked from both conditions and tested for their potential to form dox-independent lines.
Procedure for secondary MEF lines: Kinetics of reprogramming in two secondary MEF lines. Dox was applied for either 4, 6, 8, or 10 days, with or without the Alk5 inhibitor (2 μM). Colonies were quantified on day 16 based on morphology and dox independence.
To this end, we employed a “secondary system” consisting of MEFs isolated from iPSC-derived chimeras.
In two different secondary MEF lines, the effect of Alk5 inhibition on both the efficiency and kinetics of reprogramming was tested. In this experiment, dox was applied for 4, 6, 8, or 10 days, either in the presence or absence of the Alk5 inhibitor, then quantified iPSC colony number on day 16.

Consider `Cc1cccc(-c2n[nH]cc2-c2ccc3ncccc3n2)n1` [Alk5 inhibitor, 2-(3-(6-Methylpyridin-2-yl)-1H-pyrazol-4-yl)-1,5 napththyridine], for which the increase in reprogramming with secondary MEF lines (one secondary MEF line) amounted to 2 fold; in the experiment with secondary MEF lines (the other secondary MEF line), 30 fold. In [1] (around day 6), the proliferation during reprogramming result is given as “decrease in proliferation”. Also, in [1] (day 2), the “cell number early in reprogramming” value is given as “mitigated the decrease in cell number”. Besides, the “increase in efficiency at maximum” value in the experiment with secondary STEMCCA MEFs (at 0.5 μM) is reported as approximately 60 fold. Besides, in the experiment on secondary STEMCCA MEFs (doses above the maximum), the “efficiency at higher doses” value was “began to decline”. The “concentration giving maximum efficiency” value in the experiment with secondary STEMCCA MEFs (dox and inhibitor 8 days, Oct4 immunostaining day 12) was determined as 0.5 µM. Further, the “colony formation in the absence of both cMyc and Sox2” value in the experiment with primary MEFs (OK + inhibitor 1 μM) is given as “could not be obtained”. Besides, in the experiment with primary MEFs (OMK+inhibitor 1 μM), the “dox-independent colonies after passage without dox” value was “gave rise to dox-independent colonies”. The “colony formation in cMyc replacement condition” value in the experiment with primary MEFs (OSK+inhibitor, day 8) was “colonies were observed”. In addition, the “picked colonies forming dox-independent iPSC lines” value with primary MEFs (Sox2 replacement condition (OMK), inhibitor-treated culture) is listed as 3/22. Moreover, in the experiment on primary MEFs (Sox2 replacement condition (OMK), inhibitor-treated culture, dox 16 days), the “colonies morphologically identical to iPSCs” value is 50 colonies. Further, the “efficiency of OSK+inhibitor relative to four factors alone (OSK+M)” value in the experiment with primary MEFs (inhibitor 1 μM, dox withdrawn day 8, colonies day 12) turned out to be 2.5 fold. In addition, in experiment [2], the “apoptosis, Annexin V staining, inhibitor-treated versus untreated cells” value is given as “negligible difference”. In addition, the “induction of cMyc” value in experiment [3] (cells infected with OSK, dox three days, inhibitor 1 μM) was 1.3 fold. Moreover, in experiment [3] (dox three days, inhibitor 1 μM), the “change in expression of other genes (Sox2: OMK, OSMK; cMyc: OSMK; Nanog: OMK, OSK, OSMK)” value was “No other genes showed a statistically significant change”. Moreover, the “induction of Sox2 or cMyc” value in experiment [3] (other cells (OMK or OSMK)) is recorded as “no significant induction”. Moreover, in [4], the “effect on reprogramming by cell fusion” value is given as “negative result”. The “fold more GFP+ colonies with ES cell morphology” value in the experiment with Sox2-GFP fibroblasts (four factors, scored 20 days after infection, versus absence of inhibitor) was 5-10 fold. For the same molecule, the “onset of GFP expression in colonies” value in the experiment with Sox2-GFP fibroblasts (versus colonies formed in the absence of the chemical) is given as “earlier”. For the same molecule, the “increase in the efficiency of human fibroblast reprogramming” value in the experiment on human fibroblast is listed as “not observed”. Further, the “effect of inhibitor use during reprogramming on the resulting iPSCs (pluripotency markers, teratoma)” value in experiment [5] (4-day iPSCs) was “no adverse effect”. Moreover, the “frequency of iPSC colonies” value in experiment [5] (four days of dox, inhibitor 2 μM, counted day 16) amounted to 0.0013%. The “enhancement in number of iPSC colonies” value in [5] (highest dose tested (range 4 nM to 4 μM), dox and inhibitor 8 days, Oct4 immunostaining day 12) is listed as 30 fold. Further, the “reprogramming efficiency by timing of inhibitor” value is reported as “no effect” in [5] (inhibitor 1 μM applied after dox withdrawal (day 12)); “strong enhancement” in [5] (inhibitor 1 μM applied during 5-8 day interval); “largest increase in efficiency” in experiment [5] (inhibitor 1 μM applied during first four days, dox withdrawn day 12, counts day 16). Further, in [5] (inhibitor 1 μM during dox induction, stained day 12 (8d+dox/4d−dox)), the “number of iPSC colonies (alkaline phosphatase stain)” value is on record as “striking increase”. Moreover, in [5] (inhibitor 1 μM during first 3 days of factor expression (0 to +3d)), the enhancement in efficiency is −5 fold. In experiment [5] (inhibitor 1 μM in −3d/+3d group), the increase in efficiency entry is “comparable to the 0 to +3d group”. Also, the “reprogramming efficiency, priming test” value in experiment [5] (inhibitor 1 μM prior to factor expression (days 3 to 0), dox withdrawn day 8, counts day 12) is on record as “slight reduction in efficiency”. The iPSC formation result in [5] (three days of dox, inhibitor 2 μM, counted day 16) is “not obtained”.

Take “TGF-β1: TGF-β ligand obtained from Peprotech”: in [5], the “efficiency of iPSC formation” value is reported as approximately 0.0013% and the “iPSC colonies per well” value is “one”. Moreover, in [5] (setting [6]), the iPSC formation entry was “undetectable”. In addition, the iPSC formation entry in experiment [5] (setting [7]) is on record as “undetectable”.

B1: TGF-β2: TGF-β ligand obtained from Peprotech (protein, UniProt P61812 303-414, looked up)
Transforming growth factor …: ALDAAYCFRNVQDNCCLRPLYIDFKRDLGWKWIHEPKGYNANFCAGACPYLWSSDTQHSRVLSLYNTINPEASASPCCVSQDLEPLTILYYIGKTPKIEQLSNMIVKSCKCS
As for B1, the “efficiency of iPSC formation” value in [5] is on record as approximately 0.0013%. Moreover, the “iPSC colonies per well” value in experiment [5] is listed as “one”. In addition, the iPSC formation entry in experiment [5] (setting [6]) and in experiment [5] (setting [7]) was “undetectable” in each case.
